What was measured:
[1] = Plasma protein binding test, monkey; type: in vitro ADME
Procedure: (§1) • 1. Test compound and control compound were dissolved in dimethyl sulfoxide (DMSO) to achieve 10 mM stock solutions. DMSO working solutions were prepared at 400 μM. To prepare the loading matrix, compound working solutions (5 μL) were added in a 1:200 ratio to blank matrix (995 μL), and mixed thoroughly. • 2. To prepare the time zero (TO) samples to be used for recovery determination, 50 μL aliquots of loading matrix were transferred in triplicate to the sample collection plate. The samples were immediately matched with opposite blank buffer to obtain a final volume of 100 μL of 1:1 matrix/dialysis buffer (v/v) in each well. 500 μL of stop solution were added to these TO samples. They were then stored at 2-8° C. pending further processes along with other post-dialysis samples. • 3. To load the dialysis device, an aliquot of 150 μL of the loading matrix was transferred to the donor side of each dialysis well in triplicate, and 150 μL of the dialysis buffer was loaded to the receiver side of the well. The dialysis plate was placed in a humidified incubator at 37° C. with 5% CO2 on a shaking platform that rotated slowly (about 100 rpm) for 4 hours • 4. At the end of the dialysis, aliquots of 50 μL of samples were taken from both the buffer side and the matrix side of the dialysis device. […]
(§2) The % Unbound and % Bound were calculated using the following equations: […]

[2] = Plasma protein binding test, mouse; type: in vitro ADME
Procedure: as §1, with “device. These samples were transferred into new 96-well plates. Each sample was mixed with an equal volume of opposite blank matrix (buffer or matrix) to reach a final volume of 100 μL of 1:1 matrix/dialysis buffer (v/v) in each well. All samples were further processed by adding 500 μL of stop solution containing internal standards. The mixture was vortexed and centrifuged at 4000 rpm for about 20 minutes. An aliquot of 100 μL of supernatant of all the samples was then removed for LC-MS/MS analysis • 5. The single blank samples were prepared by transferring […] of blank matrix to a 96 well plate and adding 50 μL of blank PBS buffer to each well. The blank plasma must match the species of plasma used in the plasma side of the well.” for “device.”
as §2

JAK2/JAK2 pathway = assay: Selectivity: JAK2/JAK2 pathway, TPO-induced p-STAT3 in MEG-1 cells, western blot; type: cell-based; conditions: TPO 100 ng/mL
Procedure: MEG-1 cells were digested by trypsin, re-suspended in 1640 medium and counted. The compounds to be measured were added to 6 well plates (1 million/per well) for 2 hours, and then TPO (final concentration: 100 ng/mL) was added to stimulate cells for 30 minutes. The cells were collected and lysed with protein lysate. The protein was quantitatively tested by BCA kit. Finally, p-STAT3/STAT3 and internal reference protein β-actin were detected by western blot.

[3] = Pharmacokinetic evaluation in beagle dog; type: in vivo; conditions: for F / AUC / Vd / clearance / half-life / Cmax / Tmax: beagle dog; for plasma exposure in beagle dog (in words): conclusion from Table 11; for AUC / Vd / clearance / half-life / Cmax / Tmax: plasma
Procedure: The beagle dog pharmacokinetic characteristics of compounds were tested by standard protocols. The candidate compounds were made into clear solution for single intravenous injection (i.v.) and suspension for oral administration (p.o.). Intravenous and oral vehicle is 5% DMSO+10% Solutol+85% Saline. The experiment used 9 dog and 3 dog for intravenous at a dose of 1 mg/kg. Plasma samples were collected at 0 h (before dosing) and 0.083 h, 0.25 h, 0.5 h, 1 h, 2 h, 4 h, 8 h, 24 h after dosing. 3 dog were orally administrated at a dose of 5 mg/kg and 3 dog were orally administrated at a dose of 15 mg/kg. Plasma samples were collected at 0 h (before dosing) and 0.25 h, 0.5 h, 1 h, 2 h, 4 h, 6 h, 8 h, 24 h after dosing.
Blood samples were placed in tubes containing K2-EDTA and stored on ice until centrifuged. The blood samples were centrifuged at 6800 g for 6 minutes at 2-8° C. within 1 h after collected, and stored frozen at approximately −80° C.
The analytical results were confirmed using quality control samples for intra-assay variation. The accuracy of >66.7% of the quality control samples and 50% of all QC samples at each concentration level were between 80-120% of the known value(s).
Standard set of parameters including area under the curve (AUC(0-t) and AUC(0-∞)), elimination half-live (T1/2), maximum plasma concentration (Cmax), time to reach maximum plasma concentration (Tmax) were calculated using noncompartmental analysis modules in FDA certified pharmacokinetic program Phoenix WinNonlin 7.0 (Pharsight, USA) by the Study Director.

Q: Which fraction unbound at 4 h, 2 μM [1] does the source give for `CCC(=O)c1cnc(NC(=O)C2CC2)cc1Nc1cccc(-c2cc(P(C)(C)=O)n(C)n2)c1OC` [Compound B2, N-(4-((3-(5-(dimethylphosphoryl)-1-methyl-1H-pyrazol-3-yl)-2-methoxyphenyl)amino)-5-propionylpyridin-2-yl)cyclopropanecarboxamide] here?
A: 0.042

Q: What about the fraction unbound at 4 h, 2 μM [2] of the same molecule?
A: 0.067

Q: For `[2H]C([2H])([2H])n1nc(-c2cccc(Nc3cc(NC(=O)C4CC4)ncc3C(=O)CC)c2OC)cc1P(C)(C)=O` [Compound B22], which fraction unbound at 4 h, 2 μM [2] is on record?
A: 0.03

Q: Which “effect on TPO-induced downstream STAT3 phosphorylation” value (JAK2/JAK2 pathway) does the source give for `CCC(=O)c1cnc(NC(=O)C2CC2)cc1Nc1cccc(-c2cc(P(=O)(C3CC3)C3CC3)n(C)n2)c1OC` [Compound B37, N-(4-((3-(5-(dicyclopropylphosphoryl)-1-methyl-1H-pyrazol-3-yl)-2-methoxyphenyl)amino)-5-propionylpyridin-2-yl)cyclopropanecarboxamide] here?
A: no effect

Q: What about the F ([3]; p.o. 5 mg/kg) of the same molecule?
A: 46%

Q: What about the F ([3]; p.o. 15 mg/kg) of the same molecule?
A: 21%

Q: And the “plasma exposure in beagle dog (in words)” value [3]?
A: excellent plasma exposure

Q: What about the AUC ([3]; iv, i.v. 1 mg/kg) of the same molecule?
A: 9240 ng·h/mL

Q: And the Vd ([3]; iv, i.v. 1 mg/kg)?
A: 0.33 L/kg

Q: What about the clearance ([3]; iv, i.v. 1 mg/kg) of the same molecule?
A: 1.9 mL/min/kg

Q: And the half-life ([3]; iv, i.v. 1 mg/kg)?
A: 2.2 h

Q: And the AUC ([3]; po, p.o. 5 mg/kg)?
A: 21300 ng·h/mL

Q: What about the Cmax ([3]; po, p.o. 5 mg/kg) of the same molecule?
A: 3980 ng/mL

Q: And the Tmax ([3]; po, p.o. 5 mg/kg)?
A: 0.83 h

Q: And the AUC ([3]; po, p.o. 15 mg/kg)?
A: 28600 ng·h/mL

Q: What about the Cmax ([3]; po, p.o. 15 mg/kg) of the same molecule?
A: 4870 ng/mL

Q: And the Tmax ([3]; po, p.o. 15 mg/kg)?
A: 0.67 h

Q: For `[2H]C([2H])([2H])NC(=O)c1nnc(NC(=O)C2CC2)cc1Nc1cccc(-c2cc(P(=O)(C3CC3)C3CC3)n(C)n2)c1OC` [Compound B41, 6-(cyclopropanecarboxamido)-4-((3-(5-(dicyclopropylphosphoryl)-1-methyl-1H-pyrazol-3-yl)-2-methoxyphenyl)amino)-N-(methyl-d3)pyridazine-3-carboxamide], which “effect on TPO-induced downstream STAT3 phosphorylation” value (JAK2/JAK2 pathway) is on record?
A: no effect

Q: And the F ([3]; p.o. 5 mg/kg)?
A: 79%

Q: And the F ([3]; p.o. 15 mg/kg)?
A: 120%

Q: What about the “plasma exposure in beagle dog (in words)” value [3] of the same molecule?
A: excellent plasma exposure

Q: What about the AUC ([3]; iv, i.v. 1 mg/kg) of the same molecule?
A: 4900 ng·h/mL

Q: What about the Vd ([3]; iv, i.v. 1 mg/kg) of the same molecule?
A: 0.56 L/kg

Q: And the clearance ([3]; iv, i.v. 1 mg/kg)?
A: 4 mL/min/kg

Q: And the half-life ([3]; iv, i.v. 1 mg/kg)?
A: 2.1 h

Q: And the AUC ([3]; po, p.o. 5 mg/kg)?
A: 19400 ng·h/mL

Q: What about the Cmax ([3]; po, p.o. 5 mg/kg) of the same molecule?
A: 3100 ng/mL

Q: And the Tmax ([3]; po, p.o. 5 mg/kg)?
A: 1 h

Q: What about the AUC ([3]; po, p.o. 15 mg/kg) of the same molecule?
A: 88000 ng·h/mL

Q: And the Cmax ([3]; po, p.o. 15 mg/kg)?
A: 9870 ng/mL

Q: And the Tmax ([3]; po, p.o. 15 mg/kg)?
A: 1.7 h

Q: What about the fraction unbound at 4 h, 2 μM [1] of the same molecule?
A: 0.076

Q: And the fraction unbound at 4 h, 2 μM [2]?
A: 0.018

Source: US20240343747A1, “Heteroaryl compounds as inhibitors of TYK2, composition and application thereof” (Accro Bioscience (HK) Limited, priority 2021, published 2024)
